Source: patent publication US20250064886A1, “CARDIOVASCULAR AND CEREBROVASCULAR DRUG AND USE THEREOF” (HANGZHOU ADAMERCK PHARMLABS INC., priority 2021, published 2025)
Values joined by “and” are separate entries in the source; they are usually repeats but may differ in a detail not shown here. Equal entries are not always repeated.

Experiments:
[1] = system: vascular endothelial injury induced thrombosis model in zebrafish; assay: Preventative effect on vascular endothelial injury induced thrombosis, ponatinib zebrafish model (Example 1); format: in vivo; settings: 30.0 μg/mL dissolved in water
[2] = system: vascular endothelial-injury thrombosis model in zebrafish; assay: Preventative effect of compound (1) on vascular endothelial injury induced thrombosis in zebrafish (Example 3); format: in vivo; settings: 30 μg/mL in water
Description: Experimental method: Wild-type AB strain zebrafish were treated with 4 μg/mL punatinib for 18 h to establish vascular endothelial-injury thrombosis model in zebrafish. 150 of 5 dpf wild-type AB strain zebrafish were randomly selected and placed in six-well plates with 30 fish per well (experimental group). The zebrafish were injected with compound (1) at a dose of 2.06 ng/tail, and 6.18 ng/tail, and the positive control drug acetylsalicylic acid was given by dissolving it in water with a concentration of 30 µg/mL, while the normal control group (i.e., zebrafish treated with standard dilution water) and the model control group were set up, and the volume of each well (experimental group) was 3 mL. Except for normal control group, the remaining experimental groups were all given Punatinib by dissolving it in water to induce vascular endothelial injury thrombosis model in zebrafish. The zebrafish were co-treated with compound (1) and punatinib for a period of time under incubation condition at 28° C., and then stained with o-dianisidine. After staining, 10 zebrafish were randomly selected from each group and photographed under the microscope. The intensity of cardiac erythrocyte staining in zebrafish was analyzed using NIS-Elements D 3.10 advanced image-processing software, and the preventative effect of compound (I) on vascular endothelial injury thrombosis was evaluated based on the statistical results of cardiac erythrocyte staining intensity. The preventative effect on thrombosis is calculated as follows: […]
Statistical analysis were performed using Analysis of Variance and Dunnett's t-test, and p<0.05 indicates a significant difference, providing a representative experimental plot.

[3] = system: arteriovenous bypass thrombosis in rats; assay: Arteriovenous bypass thrombosis in rats (Example 4); format: in vivo, rat
Description: Grouping: Divided into 5 groups, with 10 animals in each group. The model control group was given with solvent, and the test drug compound (1) and the positive control were given intravenously once a day for consecutive 3 d. The modeling started 30 min after the last dose.
Model preparation: 50 SD male rats were anesthetized with sodium pentobarbital at a dose of 60 mg/kg via ip. The rat was fixed in the supine position, and the skin was incised at the midline of the neck; the fascia and muscle tissues were separated, the left common carotid artery and the right external jugular vein were dissociated, and the arterio-venous (A-V) bypass surgery was performed using the polyethylene tubing with a built-in thread. The arterial clip was used to clamp the proximal end of the carotid artery, and one end of the polyethylene tubing was inserted into the artery, and another end was inserted into the vein, thereby completing the bypass surgery. 30 minutes after the last dose, the arterial clip was opened, and blood flowed from the left common carotid artery to the right external jugular vein through the bypass tubing, and the blood flow formed a bypass circulation, and the thrombus was taken out 15 min later.
(§1) Detection index: the blood flow was open after 15 min, the thread was taken out, the residual liquid was sucked dry, the thread attached with thrombus was weighed and the wet weight of thrombus was calculated; the dry weight of thrombus was weighed and calculated after bake-drying in the oven at 50° C. Thrombosis inhibition rate was calculated. Tails were clipped at the end of the experiment to detect bleeding time.

[4] = system: rats with focal cerebral ischemia (MCAO)/reperfusion; assay: Preventative administration, cerebral ischemia-reperfusion injury MCAO/R in rats (Example 5); format: in vivo, rat
Description: Experimental method: SD rats were randomly divided into six groups, i.e., pseudosurgery group, model control group, positive control drug ozagre (6 mg/kg) group, and administration drug compound (1) high-dose (67.5 mg/kg) group, medium-dose (22.5 mg/kg) group, and low-dose (7.5 mg/kg) group. The administration group was pre-administered via tail vein injection, while the pseudosurgery group and model control group were given equal volumes of physiological saline once a day for 3 consecutive days. 10 minutes after the last administration, a rat MCAO/R model was established and performed reperfusion 2 hours post ischemia. 24 hours after MCAO reperfusion, the neurobehavioral scores of rats were performed to determine their neurological function; the cerebral infarction rate and cerebral water content in rats were determined using 2,3,5-triphenyltetrazolium chloride (TTC) staining method.

rats = assay: Bleeding time in rats, tail clipping (Example 4); format: in vivo, rat
Description: as §1, with “Grouping: Divided into 5 groups, with 10 animals in each group. […] The modeling started 30 min after the last dose. Detection” for “Detection”

[5] = system: cerebral ischemic injury in rats caused by autologous thrombus and thrombin; assay: Ischemic brain injury in rats caused by autologous thrombus and thrombin (Example 6); format: in vivo, rat
Description: The drug was administered once by slow tail vein injection (1 ml per minute) 2 h after modeling, and the decrease in blood flow was monitored after the injection of thrombin, and 120 min after the administration of the drug. Neurobehavioral scoring was performed to determine the neurological function of rats after 24 h. The cerebral infarction rate and cerebral water content of rats were determined using 2,3,5-triphenyltetrazolium chloride (TTC) staining method, and the pathological damage of the brain of rats administered with drug 2 h after cerebral ischemia was observed by hematoxylin-eosin (HE) staining.

[6] = system: vascular endothelial injury induced thrombosis model in zebrafish; assay: Preventative effect on vascular endothelial injury induced thrombosis, ponatinib zebrafish model (Example 1); format: in vivo; settings: 4.00 ng/tail injected
Description: Experimental method: 420 tails of 5 dpf wild type AB strain zebrafish were randomly selected and placed in a six-well plate, with 30 fish per well (experimental group). The fish were injected with compound (1), compound (2), compound (3), compound (4), compound (5), compound (6), compound (7), compound (8), compound (9), compound (10), and compound (11) (structural formula shown in Table 1) at a dose of 4.00 ng/tail, with positive control drug acetylsalicylic acid being administered by dissolving it in water at a concentration of 30.0 µg/mL. Normal control group (i.e. zebrafish treated with standard diluted water) and model control group were set up, with a capacity of 3 mL per well (experimental group). Except for normal control group, the remaining experimental groups were all given Punatinib by dissolving it in water to induce vascular endothelial injury induced thrombosis model in zebrafish. The zebrafish were stained with o-dianisidine after co-treatment with ponatinib and samples for a period of time under incubation conditions at 28° C.
After staining, 10 zebrafish in each group were randomly selected and photographed under the microscope, and the intensity of cardiac erythrocyte staining in zebrafish was analyzed using NIS-Elements D 3.20 advanced image-processing software, and the samples were evaluated for the preventative effect on vascular endothelial injury induced thrombosis by the statistical results of cardiac erythrocyte staining intensity.
The preventative effect on thrombosis is calculated as follows: […]
Statistical analysis was performed using SPSS software, and p<0.05 indicates significant differences

tryptase = assay: Sensitization risk: tryptase expression (OD, BAPNA) in zebrafish (Example 2); format: in vivo
Description: Experimental method: 2 dpf wild type AB strain zebrafish were randomly selected and placed in a 24-well plate, with each group 6 parallel wells and 10 zebrafish per well. The zebrafish were injected intravenously with samples at a dose of 500 ng/tail and the positive control “C48/80” at a concentration of 1.5 μg/mL, while normal control group was set up. Each well has a capacity of 1 mL.
All experimental groups were given BAPNA by dissolving it in the water. After treatment at 28° C. for 1 day, the liquid was transferred to 96-well plates with 200 μL/well, and the relative absorbance values (OD values) of the expression levels of tryptase in each experimental group were detected using an microplate reader, and the results of the statistical analysis of the OD values were used to evaluate the risk of sensitization by sample. Statistical results were expressed as mean±SE.
Statistical analysis was performed using SPSS software, and p<0.05 indicates significant differences.

[7] = 16 mg/kg i.v. once a day 3 d, in g (unit assumed)

`CC(=O)Oc1ccccc1C(=O)O` [Acetylsalicylic acid, acetylsalicylic acid, reference compound] was tested, and the “Preventative effect on thrombosis (%)” value [1] was 101%, the “Cardiac erythrocyte staining intensity (pixels, mean ± SE)” value ([1]; n = 10) was 5345 ± 228 pixels and the “Thromboprophylactic effect (%)” value [2] was 85%. The “Cardiac erythrocyte staining intensity (pixels, mean ± SE)” value ([2]; n = 10) was 4655 ± 136 pixels.
In the case of `O=C(O)/C=C/c1ccc(Cn2ccnc2)cc1` [Ozagre, ozagrel, reference compound], the “Dry weight inhibition rate (%)” value ([3]; 16 mg/kg i.v.) is reported as 34.1%, the “Wet weight inhibition rate (%)” value ([3]; 16 mg/kg i.v.) is reported as 34% and the “Dry weight of thrombus” value [3, 7] is reported as 0.0054 ± 0.0018. For the same compound, the “Wet weight of thrombus” value [3, 7] was 0.0208 ± 0.0041, the “Cerebral infarction rate (%)” value ([4]; 6 mg/kg tail vein, once a day 3 days before MCAO/R, 24 h after reperfusion, mean ± SD, n = 8) was 14.39 ± 8.14 % and the Behavioral score ([4]; 6 mg/kg, preventative) was 1.50 ± 0.56. The “Cerebral water content (%)” value ([4]; 6 mg/kg, preventative, tail vein 3 days) was 78.42 ± 3.73 %, the “Bleeding time” value (rats; 16 mg/kg i.v.) was 740.8 ± 224 s and the “Effect on the bleeding time in rats, in words” value (rats; intravenous, compared with model control group) was “significantly prolonged”.
With Urokinase [reference compound] the “Cerebral blood flow: Percentage decrease after injection of thrombin (%)” value ([5]; 5000 U/kg group, value before administration) was 50.10 ± 7.94%, the “Cerebral infarction rate (%)” value ([5]; 5000 U/kg i.v.) was 9.72 ± 9.89 % and the “Cerebral water content (%)” value ([5]; 5000 U/kg i.v.) was 79.78 ± 0.72 %. The “Cerebral blood flow: Percentage decrease two hours after administration (%)” value ([5]; 5000 U/kg i.v. once 2 h after modeling) was 37.12 ± 4.49 %, the Pathological damage score ([5]; 5000 U/kg i.v., HE staining) was 1.75 ± 0.86 and the Behavioral score ([5]; 5000 U/kg i.v., after 24 h) was 1.60 ± 0.70.
In the case of `CC(=O)N[C@@H](CSCC1OC2OC3C(CSC[C@H](NC(C)=O)C(=O)[O-])OC(OC4C(CSC[C@H](NC(C)=O)C(=O)[O-])OC(OC5C(CSC[C@H](NC(C)=O)C(=O)[O-])OC(OC6C(CSC[C@H](NC(C)=O)C(=O)[O-])OC(OC7C(CSC[C@H](NC(C)=O)C(=O)[O-])OC(OC8C(CSC[C@H](NC(C)=O)C(=O)[O-])OC(OC9C(CSC[C@H](NC(C)=O)C(=O)[O-])OC(OC1C(O)C2O)C(O)C9O)C(O)C8O)C(O)C7O)C(O)C6O)C(O)C5O)C(O)C4O)C(O)C3O)C(=O)[O-].[Na+].[Na+].[Na+].[Na+].[Na+].[Na+].[Na+].[Na+]` (stereo partly drawn) [Compound (2)], the “Preventative effect on thrombosis (%)” value [6] is reported as 39%, the “Cardiac erythrocyte staining intensity (pixels, mean ± SE)” value ([6]; n = 10) is reported as 3655 ± 318 pixels and the “Cardiac erythrocyte staining intensity (pixels, mean ± SE)” value ([6]; n = 10, listed as compound (2)) is reported as 3655 pixels. The “Sensitization risk, in words” value (tryptase; 500 ng/tail) was “no or substantially no sensitization risk”, the “Relative sensitization risk (compared with positive control group)” value (tryptase; 500 ng/tail intravenous) was −4% and the “Sensitization risk (%)” value (tryptase; 500 ng/tail intravenous) was −3.7%. For the same compound, the “Absorbance value (OD value), parallel wells 1-6” value (tryptase; 500 ng/tail intravenous, 28° C. 1 day, single wells) was 0.05655 and 0.05255 and 0.04865 and 0.04785 and 0.05085 and 0.05405 and the “Absorbance value (OD value), mean” value (tryptase; 500 ng/tail intravenous, mean of 6 wells) was 0.052.
